Laboratory results taken from patent US9770435B2 (EUROSCREEN SA, priority 2013, dated 2017).

test system: TNFα secretion from LPS-stimulated PBMC; test: Cytokines release from peripheral blood mononuclear cell assay: TNFα; assay type: cell-based; conditions: Homo sapiens, 3 h
Experimental: Data are presented as percentage of LPS response.
Data are presented as mean±SEM and the final concentration of each tested compound in the assay is 10 μM. Statistical analysis was performed by 2-way ANOVA followed by Dunnet's comparison to vehicle group, ****p<0.0001.
Cytokines Release from Peripheral Blood Mononuclear Cell Assay
Peripheral blood mononuclear cells (PBMC) are purified from heparinised fresh blood sample on a Lymphoprep gradient. PBMC are plated in 96-well assay plate (2×10^5 cells/well) and stimulated with or without LPS (100 ng/ml) and increasing concentration of compounds of the invention for 3 hours at 37° C. Cell supernatants are recovered after centrifugation and human soluble TNFα, IL-6 or other cytokines, are quantified using ELISA assay (R&D system) according manufacturer's recommendation.
Additional results with compounds of the invention are set out in tabulated form (Table 5).

Row | Compound | IC50 [µM]
1 | COc1ncc(-c2ccc(C(=O)N3[C@@H](c4ccccc4Cl)CC[C@H]3C(=O)O)cc2)c(OC)n1 [Compound 161, (2S,5R)-5-(2-chlorophenyl)-1-(4-(2,4-dimethoxypyrimidin-5-yl)benzoyl)pyrrolidine-2-carboxylic acid] | 11.8
2 | COc1ncc(-c2ccc(C(=O)N3[C@@H](c4ccccc4Cl)CC[C@H]3C(=O)O)cc2Cl)c(OC)n1 [Compound 325, (2S,5R)-1-(3-chloro-4-(2,4-dimethoxypyrimidin-5-yl)benzoyl)-5-(2-chlorophenyl)pyrrolidine-2-carboxylic acid] | 6
3 | COc1ccc(C#N)cc1-c1ccc(C(=O)N2[C@@H](c3ccccc3Cl)CC[C@H]2C(=O)O)cc1 [Compound 345, (2S,5R)-5-(2-chlorophenyl)-1-(5′-cyano-2′-methoxy-[1,1′-biphenyl]-4-carbonyl)pyrrolidine-2-carboxylic acid] | 0.99
4 | COc1cc(C#N)c(-c2ccc(C(=O)N3[C@@H](c4ccccc4Cl)CC[C@H]3C(=O)O)cc2)cc1OC [Compound 361, (2S,5R)-5-(2-chlorophenyl)-1-(2′-cyano-4′,5′-dimethoxy-[1,1′-biphenyl]-4-carbonyl)pyrrolidine-2-carboxylic acid] | 5.19
5 | N#Cc1ccccc1-c1ccc(C(=O)N2[C@@H](c3ccccc3Cl)CC[C@H]2C(=O)O)cc1F [Compound 390, (2S,5R)-5-(2-chlorophenyl)-1-(2′-cyano-2-fluoro-[1,1′-biphenyl]-4-carbonyl)pyrrolidine-2-carboxylic acid] | 5.52
6 | Cc1ccc(C#N)cc1-c1ccc(C(=O)N2[C@@H](c3cccc(F)c3F)CC[C@H]2C(=O)O)cc1 [Compound 421, (2S,5R)-1-(5′-cyano-2′-methyl-[1,1′-biphenyl]-4-carbonyl)-5-(2,3-difluorophenyl)pyrrolidine-2-carboxylic acid] | 2.93
